Assay results from ChEMBL document CHEMBL6153066, “Discovery of CZY43 as a new small-molecule degrader of pseudokinase HER3” (Eur J Med Chem, 2025).
Activity calls are given as the source filed them. The rule behind the calls is not given here.

Key:
[1] = molecular target: T1, Receptor tyrosine-protein kinase erbB-3 (Homo sapiens, UniProt P21860); test: Induction of hydrophobic tag-mediated HER3 degradation in human SK-BR-3 cells incubated for 8 hrs by immunoblot analysis; type: cell-based
[2] = molecular target: T1, Receptor tyrosine-protein kinase erbB-3; test: Induction of hydrophobic tag-mediated HER3 degradation in human SK-BR-3 cells at 1000 nM by immunoblot analysis; type: cell-based; settings: time <= 24.0 hrs
[3] = molecular target: T1, Receptor tyrosine-protein kinase erbB-3; test: Induction of hydrophobic tag-mediated HER3 degradation in human MDA-MB-453 cells upto 2000 nM incubated for 8 hrs by immunoblot analysis; type: cell-based
[4] = molecular target: T1, Receptor tyrosine-protein kinase erbB-3; test: Induction of hydrophobic tag-mediated HER3 degradation in human A549 cells upto 2000 nM incubated for 8 hrs by immunoblot analysis; type: cell-based
[5] = molecular target: T1, Receptor tyrosine-protein kinase erbB-3; test: Induction of Hsp90 binding to HER3 in human SK-BR-3 cells at 1 uM incubated for 8 hrs by Co-IP method; type: cell-based
[6] = molecular target: T1, Receptor tyrosine-protein kinase erbB-3; test: Induction of HER3 ubiquitination in human SK-BR-3 cells at 1 uM incubated for 8 hrs by Co-IP method; type: cell-based
[7] = molecular target: T1, Receptor tyrosine-protein kinase erbB-3; test: Induction of hydrophobic tag-mediated HER3 degradation in human SK-BR-3 cells at 1 uM incubated for 8 hrs in presence of chloroquine by immunoblot analysis; type: cell-based
[8] = molecular target: T1, Receptor tyrosine-protein kinase erbB-3; test: Induction of hydrophobic tag-mediated HER3 degradation in human SK-BR-3 cells at 1 uM incubated for 8 hrs in presence of MG132 by immunoblot analysis; type: cell-based
[9] = test system: SK-BR-3; test: Induction of autophagy in human SK-BR-3 cells assessed as increase in LC3B-II level upto 2 uM incubated for 8 hrs by Western blot analysis; type: functional, cell-based
[10] = molecular target: T1, Receptor tyrosine-protein kinase erbB-3; test: Induction of hydrophobic tag-mediated HER3 degradation in human SK-BR-3 cells assessed as decrease in HER3 level upto 2000 nM incubated for 8 hrs by immunoblot analysis; type: cell-based
[11] = molecular target: T1, Receptor tyrosine-protein kinase erbB-3; test: Induction of hydrophobic tag-mediated HER3 degradation in human SK-BR-3 cells assessed as decrease in p-AKT level upto 2000 nM incubated for 8 hrs by immunoblot analysis; type: cell-based
[12] = test system: SK-BR-3; test: Antiproliferative activity against human SK-BR-3 cells incubated for 72 hrs by CCK8 assay; type: functional, cell-based; settings: SK-BR-3, 72 h
[13] = test system: SK-BR-3; test: Inhibition of cell adhesion in human SK-BR-3 cells upto 2000 nM incubated for 8 hrs by crystal violet staining based analysis; type: functional

T1 sequence (P21860 whole entry): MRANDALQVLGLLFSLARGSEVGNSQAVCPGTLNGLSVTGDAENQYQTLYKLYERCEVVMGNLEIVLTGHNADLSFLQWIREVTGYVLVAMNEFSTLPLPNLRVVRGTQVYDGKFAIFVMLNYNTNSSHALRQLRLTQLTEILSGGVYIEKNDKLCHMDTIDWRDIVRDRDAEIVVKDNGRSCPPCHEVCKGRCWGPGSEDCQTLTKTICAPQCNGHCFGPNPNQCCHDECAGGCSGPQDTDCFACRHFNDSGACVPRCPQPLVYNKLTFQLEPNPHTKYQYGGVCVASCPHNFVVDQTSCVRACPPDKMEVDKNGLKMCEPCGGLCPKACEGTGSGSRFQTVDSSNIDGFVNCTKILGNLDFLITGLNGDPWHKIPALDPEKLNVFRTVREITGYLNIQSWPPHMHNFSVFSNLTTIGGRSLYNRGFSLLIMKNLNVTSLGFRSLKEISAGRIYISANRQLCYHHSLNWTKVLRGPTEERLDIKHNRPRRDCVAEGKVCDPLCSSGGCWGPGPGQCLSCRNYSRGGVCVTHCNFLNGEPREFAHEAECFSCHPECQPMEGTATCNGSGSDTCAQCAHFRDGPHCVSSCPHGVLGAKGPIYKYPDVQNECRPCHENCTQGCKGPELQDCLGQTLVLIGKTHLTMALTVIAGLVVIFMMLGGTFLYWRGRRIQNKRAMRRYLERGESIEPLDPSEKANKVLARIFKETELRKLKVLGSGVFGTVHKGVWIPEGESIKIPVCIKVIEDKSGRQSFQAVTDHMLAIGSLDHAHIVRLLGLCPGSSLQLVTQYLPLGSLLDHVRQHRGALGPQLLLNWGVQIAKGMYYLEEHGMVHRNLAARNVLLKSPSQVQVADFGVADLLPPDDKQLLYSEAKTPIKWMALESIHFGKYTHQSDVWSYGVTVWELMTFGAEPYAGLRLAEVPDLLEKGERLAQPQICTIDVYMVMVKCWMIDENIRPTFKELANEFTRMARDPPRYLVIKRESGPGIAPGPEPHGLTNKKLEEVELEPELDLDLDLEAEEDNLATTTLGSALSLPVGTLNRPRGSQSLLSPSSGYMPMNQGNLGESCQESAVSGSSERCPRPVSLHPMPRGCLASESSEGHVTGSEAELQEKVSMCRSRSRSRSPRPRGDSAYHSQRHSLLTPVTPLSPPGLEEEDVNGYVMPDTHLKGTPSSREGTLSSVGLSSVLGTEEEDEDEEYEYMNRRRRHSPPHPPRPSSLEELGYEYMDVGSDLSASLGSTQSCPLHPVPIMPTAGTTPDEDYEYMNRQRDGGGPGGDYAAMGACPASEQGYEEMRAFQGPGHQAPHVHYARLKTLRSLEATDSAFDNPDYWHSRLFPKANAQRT

| DC50 [1] [nM] | Activity ([1]; dose <= 2000.0 nM) | Activity [2] | Activity [3] | Activity [4] | Activity [5] | Activity [6] | Activity [7] | Activity [8] | IC50 [12] [nM] | Structure (SMILES) | Activity [9] | Activity [10] | Activity [11] | inhibition [13] |
| --- | --- | --- | --- | --- | --- | --- | --- | --- | --- | --- | --- | --- | --- | --- |
| 559 | Dose-dependent-effect | Time-dependent-effect | Active | Active | Active | Active | inactive | Active | 530 | COc1cc(Nc2c(C#N)cnc3cc(OCCCN4CCC5(CC4)CCN(CCC46C[C@H]7C[C@@H](C4)C[C@@H](C6)C7)CC5)c(OC)cc23)c(Cl)cc1Cl | Active | Active; Exhibited As More Potent Than Bosutinib | Active; Exhibited As More Potent Than Bosutinib | Active |
| – | – | – | – | – | – | – | – | – | 5140 | COc1cc(Nc2c(C#N)cnc3cc(OCCCN4CCN(C)CC4)c(OC)cc23)c(Cl)cc1Cl [BOSUTINIB] | – | – | – | – |
